biological target: T1, Neutrophil elastase (Homo sapiens, UniProt P08246); experiment: Inhibitory activity against human leukocyte elastase using MeO-Suc-Ala-Ala-Pro-Val-pNA (416 uM) as substrate
T1 sequence (P08246 whole entry): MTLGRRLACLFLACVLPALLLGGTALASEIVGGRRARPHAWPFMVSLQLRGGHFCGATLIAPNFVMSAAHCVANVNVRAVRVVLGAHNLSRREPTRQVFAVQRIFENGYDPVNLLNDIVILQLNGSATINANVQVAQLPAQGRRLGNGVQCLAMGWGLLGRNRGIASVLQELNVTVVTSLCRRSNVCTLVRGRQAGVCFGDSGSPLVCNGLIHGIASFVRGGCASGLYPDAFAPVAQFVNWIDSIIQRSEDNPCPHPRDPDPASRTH

IC50, > 1000 µM:
COc1ccc2c(c1)c1c(O)oc(=O)nc1n2CCc1ccccc1 [6-Methoxy-9-phenethyl-1,9-dihydro-[1,3]oxazino[4,5-b]indole-2,4-dione]

biological target: T1, Neutrophil elastase; experiment: ChEBML_86533
Method: Inhibitory activity against human leukocyte elastase using MeO-Suc-Ala-Ala-Pro-Val-pNA (416 uM) as substrate;No Inhibition

IC50, > 1000 µM:
CCCCn1c(C)c(C)c2c(O)oc(=O)nc21 [1-Butyl-2,3-dimethyl-1,7-dihydro-5-oxa-1,7-diaza-indene-4,6-dione]
Cc1c(C)n(C2CCCCC2)c2nc(=O)oc(O)c12 [1-Cyclohexyl-2,3-dimethyl-1,7-dihydro-5-oxa-1,7-diaza-indene-4,6-dione]
COCCn1c2ccc(OC)cc2c2c(O)oc(=O)nc21 [6-Methoxy-9-(2-methoxy-ethyl)-1,9-dihydro-[1,3]oxazino[4,5-b]indole-2,4-dione]
COc1ccc2c(c1)c1c(O)oc(=O)nc1n2Cc1ccccn1 [6-Methoxy-9-pyridin-2-ylmethyl-1,9-dihydro-[1,3]oxazino[4,5-b]indole-2,4-dione]
COc1ccc2c(c1)c1c(O)oc(=O)nc1n2CC(OC)OC [9-(2,2-Dimethoxy-ethyl)-6-methoxy-1,9-dihydro-[1,3]oxazino[4,5-b]indole-2,4-dione]
COc1ccc2c(c1)c1c(O)oc(=O)nc1n2C1CCCCC1 [9-Cyclohexyl-6-methoxy-1,9-dihydro-[1,3]oxazino[4,5-b]indole-2,4-dione]
COCCn1c2ccc(OC(C)=O)cc2c2c(O)oc(=O)nc21 [Acetic acid 9-(2-methoxy-ethyl)-2,4-dioxo-1,2,4,9-tetrahydro-[1,3]oxazino[4,5-b]indol-6-yl ester]

— BindingDB's records for doi:10.1016/S0960-894X(01)80270-5 (1994)
